Measurements published in ChEMBL document CHEMBL4184257, “Design, synthesis and antibacterial evaluation of honokiol derivatives” (2018).
Values after ≈ are worked out from the molar mass of the structure shown. Active and inactive are the calls of the source. The calls are words filed in the database; no cut-off is given here.

What was measured:
Escherichia coli = assay: Antibacterial activity against Escherichia coli ATCC 25922 incubated at 37 degC for 20 hrs by standard broth microdilution method; format: functional; settings: ATCC 25922, 20 h
Streptococcus pyogenes = assay: Antibacterial activity against Streptococcus pyogenes ATCC 19615 incubated at 37 degC for 20 hrs by agar dilution method; format: functional; settings: ATCC 19615, 20 h
Staphylococcus aureus [1] = assay: Antibacterial activity against Staphylococcus aureus ATCC 25923 incubated at 37 degC for 20 hrs by standard broth microdilution method; format: functional; settings: ATCC 25923, 20 h
[2] = test system: Staphylococcus epidermidis; assay: Antibacterial activity against Staphylococcus albus AS1.3374 incubated at 37 degC for 20 hrs by agar dilution method; format: functional; settings: AS1.3374, 20 h
Staphylococcus aureus [3] = assay: Bactericidal activity against Staphylococcus aureus ATCC 25923 at 4 times MIC incubated for 24 hrs by time kill curve assay; format: functional, organism-based
[4] = test system: Staphylococcus epidermidis; assay: Antibacterial activity against Staphylococcus epidermidis ATCC 12228 incubated at 37 degC for 20 hrs by agar dilution method; format: functional; settings: ATCC 12228, 20 h
Staphylococcus aureus [5] = assay: Bacteriostatic activity against Staphylococcus aureus ATCC 25923 at 1 times MIC incubated for 24 hrs by time kill curve assay; format: functional, organism-based
Staphylococcus aureus [6] = assay: Antibacterial activity against Staphylococcus aureus ATCC 29213 incubated at 37 degC for 20 hrs by agar dilution method; format: functional; settings: ATCC 29213, 20 h
Enterococcus faecalis [7] = assay: Antibacterial activity against Enterococcus faecalis ATCC 33186 incubated at 37 degC for 20 hrs by agar dilution method; format: functional; settings: ATCC 33186, 20 h
Staphylococcus aureus [8] = assay: Antibacterial activity against Staphylococcus aureus ATCC 43300 incubated at 37 degC for 20 hrs by agar dilution method; format: functional; settings: ATCC 43300, 20 h
Staphylococcus aureus [9] = assay: Antibacterial activity against Staphylococcus aureus ATCC 33591 incubated at 37 degC for 20 hrs by agar dilution method; format: functional; settings: ATCC 33591, 20 h
Enterococcus faecalis [10] = assay: Antibacterial activity against Enterococcus faecalis ATCC 35667 incubated at 37 degC for 20 hrs by agar dilution method; format: functional; settings: ATCC 35667, 20 h
Pseudomonas aeruginosa [11] = assay: Antibacterial activity against Pseudomonas aeruginosa ATCC 27853 incubated at 37 degC for 20 hrs by agar dilution method; format: functional; settings: ATCC 27853, 20 h
Staphylococcus aureus [12] = assay: Antibacterial activity against Staphylococcus aureus CMCC 26003 incubated at 37 degC for 20 hrs by agar dilution method; format: functional; settings: CMCC 26003, 20 h
Pseudomonas aeruginosa [13] = assay: Antibacterial activity against Pseudomonas aeruginosa ATCC 9027 incubated at 37 degC for 20 hrs by agar dilution method; format: functional; settings: ATCC 9027, 20 h
Staphylococcus aureus [14] = assay: Antibacterial activity against Staphylococcus aureus ATCC 6538 incubated at 37 degC for 20 hrs by agar dilution method; format: functional; settings: ATCC 6538, 20 h
Klebsiella pneumoniae [15] = assay: Antibacterial activity against Klebsiella pneumoniae ATCC 700603 incubated at 37 degC for 20 hrs by agar dilution method; format: functional; settings: ATCC 700603, 20 h
Pseudomonas aeruginosa [16] = assay: Antibacterial activity against Pseudomonas aeruginosa CMCC 10104 incubated at 37 degC for 20 hrs by agar dilution method; format: functional; settings: CMCC 10104, 20 h
Klebsiella pneumoniae [17] = assay: Antibacterial activity against Klebsiella pneumoniae ATCC 4352 incubated at 37 degC for 20 hrs by agar dilution method; format: functional; settings: ATCC 4352, 20 h
Klebsiella pneumoniae [18] = assay: Antibacterial activity against Klebsiella pneumoniae CMCC 46117 incubated at 37 degC for 20 hrs by agar dilution method; format: functional; settings: CMCC 46117, 20 h
Staphylococcus aureus [19] = assay: Induction of cell wall destruction in Staphylococcus aureus ATCC 25923 at 1 times MIC incubated for 0.5 hrs Gram staining based assay; format: functional, organism-based
Staphylococcus aureus [20] = assay: Induction of cell wall destruction in Staphylococcus aureus ATCC 25923 at 4 times MIC incubated for 1 hr Gram staining based assay; format: functional, organism-based
Candida albicans = assay: Antimicrobial activity against Candida albicans; format: functional
Staphylococcus aureus [21] = assay: Antibacterial activity against Staphylococcus aureus; format: functional
Streptococcus mutans = assay: Antibacterial activity against Streptococcus mutans; format: functional
Staphylococcus aureus [22] = assay: Bacteriostatic activity against Staphylococcus aureus ATCC 25923 assessed as bacterial load at 1 times MIC incubated for 24 hrs by time kill curve assay; format: functional
Staphylococcus aureus [23] = assay: Bactericidal activity against Staphylococcus aureus ATCC 25923 assessed as bacterial load at 4 times MIC measured within 2 hrs post dose by time kill curve assay; format: functional

## CC(=O)NC[C@H]1CN(c2ccc(N3CCOCC3)c(F)c2)C(=O)O1 [LINEZOLID]
Escherichia coli
  MIC90: > 256 µg/mL
Streptococcus pyogenes
  MIC: 0.5 µg/mL (≈ 1.48 µM)
Staphylococcus aureus [1]
  MIC90: 2 µg/mL (≈ 5.93 µM)
[2]
  MIC: 2 µg/mL (≈ 5.93 µM)
Staphylococcus aureus [3]
  Activity: Active
[4]
  MIC: 2 µg/mL (≈ 5.93 µM)
Staphylococcus aureus [5]
  Activity: Active

## C=CCc1cc(CN2CCC(N3CCCC(N)C3)CC2)c(O)c(-c2ccc(O)c(CC=C)c2)c1 (stereo not drawn)
Staphylococcus aureus [6]
  MIC: 16 µg/mL (≈ 34.7 µM)
Enterococcus faecalis [7]
  MIC: 16 µg/mL (≈ 34.7 µM)
Escherichia coli
  MIC: 128 µg/mL (≈ 277 µM)
  MIC90: 128 µg/mL (≈ 277 µM)
Staphylococcus aureus [8]
  MIC: 16 µg/mL (≈ 34.7 µM)
Streptococcus pyogenes
  MIC: 32 µg/mL (≈ 69.3 µM)
Staphylococcus aureus [9]
  MIC: 16 µg/mL (≈ 34.7 µM)
Enterococcus faecalis [10]
  MIC: 16 µg/mL (≈ 34.7 µM)
Pseudomonas aeruginosa [11]
  MIC: > 256 µg/mL
Staphylococcus aureus [12]
  MIC: 16 µg/mL (≈ 34.7 µM)
Staphylococcus aureus [1]
  MIC: 16 µg/mL (≈ 34.7 µM)
  MIC90: 16 µg/mL (≈ 34.7 µM)
Pseudomonas aeruginosa [13]
  MIC: > 256 µg/mL
[2]
  MIC: 16 µg/mL (≈ 34.7 µM)
Staphylococcus aureus [14]
  MIC: 16 µg/mL (≈ 34.7 µM)
Klebsiella pneumoniae [15]
  MIC: > 256 µg/mL
Pseudomonas aeruginosa [16]
  MIC: 64 µg/mL (≈ 139 µM)
Klebsiella pneumoniae [17]
  MIC: 16 µg/mL (≈ 34.7 µM)
[4]
  MIC: 16 µg/mL (≈ 34.7 µM)
Klebsiella pneumoniae [18]
  MIC: 32 µg/mL (≈ 69.3 µM)

## C=CCc1cc(CN2CCN(C(C)=O)CC2)c(O)c(-c2ccc(O)c(CC=C)c2)c1
Escherichia coli
  MIC90: > 256 µg/mL
Staphylococcus aureus [1]
  MIC90: > 256 µg/mL

## C=CCc1cc(CN2CCC(NC(=O)OC(C)(C)C)CC2)c(O)c(-c2ccc(O)c(CC=C)c2)c1
Escherichia coli
  MIC90: > 256 µg/mL
Staphylococcus aureus [1]
  MIC90: > 256 µg/mL

## C=CCc1cc(CN2CCCC(NC(=O)OC(C)(C)C)C2)c(O)c(-c2ccc(O)c(CC=C)c2)c1 (stereo not drawn)
Escherichia coli
  MIC90: > 256 µg/mL
Staphylococcus aureus [1]
  MIC90: > 256 µg/mL

## C=CCc1cc(CO)c(O)c(-c2ccc(O)c(CC=C)c2)c1
Escherichia coli
  MIC90: > 256 µg/mL
Staphylococcus aureus [1]
  MIC90: 32 µg/mL (≈ 108 µM)

## C=CCc1cc(CO)c(O)c(-c2cc(CO)c(O)c(CC=C)c2)c1
Escherichia coli
  MIC90: > 256 µg/mL
Staphylococcus aureus [1]
  MIC90: 64 µg/mL (≈ 196 µM)

## CN[C@H](CC(C)C)C(=O)N[C@H]1C(=O)N[C@@H](CC(N)=O)C(=O)N[C@H]2C(=O)N[C@H]3C(=O)N[C@H](C(=O)N[C@H](C(=O)O)c4cc(O)cc(O)c4-c4cc3ccc4O)[C@H](O)c3ccc(c(Cl)c3)Oc3cc2cc(c3O[C@@H]2O[C@H](CO)[C@@H](O)[C@H](O)[C@H]2O[C@H]2C[C@](C)(N)[C@H](O)[C@H](C)O2)Oc2ccc(cc2Cl)[C@H]1O [VANCOMYCIN]
Escherichia coli
  MIC90: > 256 µg/mL
Staphylococcus aureus [19]
  Activity: Active
Staphylococcus aureus [1]
  MIC90: 1 µg/mL (≈ 0.69 µM)
Staphylococcus aureus [3]
  Activity: Active
Staphylococcus aureus [5]
  Activity: Active
Staphylococcus aureus [20]
  Activity: Active

## C=CCc1cc(CN2CCN(C(=O)OC(C)(C)C)CC2)c(O)c(-c2ccc(O)c(CC=C)c2)c1
Escherichia coli
  MIC90: > 256 µg/mL
Staphylococcus aureus [1]
  MIC90: > 256 µg/mL

## C=CCc1ccc(O)c(-c2ccc(O)c(CC=C)c2)c1 [HONOKIOL]
Staphylococcus aureus [6]
  MIC: 16 µg/mL (≈ 60.1 µM)
Enterococcus faecalis [7]
  MIC: 32 µg/mL (≈ 120 µM)
Escherichia coli
  MIC: > 256 µg/mL
  MIC90: > 256 µg/mL
Staphylococcus aureus [8]
  MIC: 16 µg/mL (≈ 60.1 µM)
Streptococcus pyogenes
  MIC: 8 µg/mL (≈ 30 µM)
Staphylococcus aureus [9]
  MIC: 16 µg/mL (≈ 60.1 µM)
Enterococcus faecalis [10]
  MIC: 32 µg/mL (≈ 120 µM)
Pseudomonas aeruginosa [11]
  MIC: > 256 µg/mL
Candida albicans
  MIC: 32 µg/mL (≈ 120 µM)
Staphylococcus aureus [12]
  MIC: 16 µg/mL (≈ 60.1 µM)
Staphylococcus aureus [1]
  MIC90: 16 µg/mL (≈ 60.1 µM)
Staphylococcus aureus [21]
  MIC: 50 µg/mL (≈ 188 µM)
Pseudomonas aeruginosa [13]
  MIC: > 256 µg/mL
Streptococcus mutans
  MIC: 10 µg/mL (≈ 37.5 µM)
[2]
  MIC: 16 µg/mL (≈ 60.1 µM)
Staphylococcus aureus [14]
  MIC: 16 µg/mL (≈ 60.1 µM)
Klebsiella pneumoniae [15]
  MIC: > 256 µg/mL
Pseudomonas aeruginosa [16]
  MIC: > 256 µg/mL
Klebsiella pneumoniae [17]
  MIC: 32 µg/mL (≈ 120 µM)
[4]
  MIC: 16 µg/mL (≈ 60.1 µM)
Klebsiella pneumoniae [18]
  MIC: 32 µg/mL (≈ 120 µM)

## C=CCc1cc(CN2CCC(N3CCNCC3)CC2)c(O)c(-c2ccc(O)c(CC=C)c2)c1
Escherichia coli
  MIC90: > 256 µg/mL
Staphylococcus aureus [1]
  MIC90: 32 µg/mL (≈ 71.5 µM)

## C=CCc1cc(CN2CCC(N3CCC(N)CC3)CC2)c(O)c(-c2ccc(O)c(CC=C)c2)c1
Staphylococcus aureus [6]
  MIC: 8 µg/mL (≈ 17.3 µM)
Enterococcus faecalis [7]
  MIC: 8 µg/mL (≈ 17.3 µM)
Escherichia coli
  MIC: 16 µg/mL (≈ 34.7 µM)
  MIC90: 16 µg/mL (≈ 34.7 µM)
Staphylococcus aureus [8]
  MIC: 8 µg/mL (≈ 17.3 µM)
Streptococcus pyogenes
  MIC: 8 µg/mL (≈ 17.3 µM)
Staphylococcus aureus [22]
  Activity: 4 - 5 log10CFU/ml
Staphylococcus aureus [9]
  MIC: 8 µg/mL (≈ 17.3 µM)
Enterococcus faecalis [10]
  MIC: 8 µg/mL (≈ 17.3 µM)
Staphylococcus aureus [19]
  Activity: Active
Pseudomonas aeruginosa [11]
  MIC: 64 µg/mL (≈ 139 µM)
Staphylococcus aureus [23]
  Activity: 0 log10CFU/ml
Staphylococcus aureus [12]
  MIC: 8 µg/mL (≈ 17.3 µM)
Staphylococcus aureus [1]
  MIC: 8 µg/mL (≈ 17.3 µM)
  MIC90: 8 µg/mL (≈ 17.3 µM)
Pseudomonas aeruginosa [13]
  MIC: 64 µg/mL (≈ 139 µM)
[2]
  MIC: 8 µg/mL (≈ 17.3 µM)
Staphylococcus aureus [14]
  MIC: 8 µg/mL (≈ 17.3 µM)
Staphylococcus aureus [3]
  Activity: Dose-dependent effect
Klebsiella pneumoniae [15]
  MIC: 64 µg/mL (≈ 139 µM)
Pseudomonas aeruginosa [16]
  MIC: 64 µg/mL (≈ 139 µM)
Klebsiella pneumoniae [17]
  MIC: 8 µg/mL (≈ 17.3 µM)
[4]
  MIC: 8 µg/mL (≈ 17.3 µM)
Staphylococcus aureus [5]
  Activity: Dose-dependent effect
Staphylococcus aureus [20]
  Activity: Active
Klebsiella pneumoniae [18]
  MIC: 8 µg/mL (≈ 17.3 µM)

## NC[C@H]1O[C@H](O[C@H]2[C@H](O)[C@@H](O[C@H]3O[C@H](CO)[C@@H](O)[C@H](N)[C@H]3O)[C@H](N)C[C@@H]2N)[C@H](N)C[C@@H]1O [TOBRAMYCIN]
Escherichia coli
  MIC: 0.25 µg/mL (≈ 0.535 µM)
Pseudomonas aeruginosa [11]
  MIC: 0.25 µg/mL (≈ 0.535 µM)
Pseudomonas aeruginosa [13]
  MIC: 0.5 µg/mL (≈ 1.07 µM)
Klebsiella pneumoniae [15]
  MIC: 4 µg/mL (≈ 8.56 µM)
Pseudomonas aeruginosa [16]
  MIC: 2 µg/mL (≈ 4.28 µM)
Klebsiella pneumoniae [17]
  MIC: 1 µg/mL (≈ 2.14 µM)
Klebsiella pneumoniae [18]
  MIC: 0.25 µg/mL (≈ 0.535 µM)

## C=CCc1cc(CN2CCN(CCOC)CC2)c(O)c(-c2ccc(O)c(CC=C)c2)c1
Escherichia coli
  MIC90: > 256 µg/mL
Staphylococcus aureus [1]
  MIC90: > 256 µg/mL

## C=CCc1cc(CN2CCN(C(C)C)CC2)c(O)c(-c2ccc(O)c(CC=C)c2)c1
Escherichia coli
  MIC90: 128 µg/mL (≈ 315 µM)
Staphylococcus aureus [1]
  MIC90: > 256 µg/mL

## C=CCc1cc(CN2CCCC(C)C2)c(O)c(-c2ccc(O)c(CC=C)c2)c1 (stereo not drawn)
Escherichia coli
  MIC90: > 256 µg/mL
Staphylococcus aureus [1]
  MIC90: > 256 µg/mL
